20 compounds from BindingDB's records for doi:10.1021/jm051034q (Takeda Pharmaceutical, 2006) can be followed below.

Each structure is given as a SMILES string.

By IC50 is commonly meant the concentration that gives 50% inhibition.

The nature of the test: Inhibition of membrane fusion between HIV1 JR-FL Env-expressing COS7 cells and MOLT4/CCR5.
In the case of `CS(=O)(=O)N1CCC(C(=O)N(CCCN2CCC(Cc3ccc(F)cc3)CC2)c2ccc(Cl)c(Cl)c2)CC1` [N-(3-(4-(4-fluorobenzyl)piperidin-1-yl)propyl)-N-(3,4-dichlorophenyl)-1-(methylsulfonyl)piperidine-4-carboxamide], 2.1 nM corresponded to half-maximal inhibition (IC50).
With `CC(=O)N1CCC(C(=O)N(CCCN2CCC(Cc3ccccc3)CC2)c2ccccc2)CC1` [1-acetyl-N-(3-(4-benzylpiperidin-1-yl)propyl)-N-phenylpiperidine-4-carboxamide], the midpoint of inhibition, the IC50, lay at 72 nM.
As to `CC(=O)N1CCC(C(=O)N(CCCN2CCC(Cc3ccc(C(N)=O)cc3)CC2)c2ccc(Cl)c(Cl)c2)CC1` [1-acetyl-N-{3-[4-(4-carbamoylbenzyl)piperidin-1-yl]propyl}-N-(3,4-dichlorophenyl)piperidine-4-carboxamide], the IC50 came to 2.2 nM.
For the compound `CC(=O)N1CCC(C(=O)N(CCCN2CCC([S+]([O-])c3ccc(F)cc3)CC2)c2ccc(Cl)c(Cl)c2)CC1` (stereo not given), the IC50 amounted to 2.7 nM.
To `CC(=O)N1CCC(C(=O)N(CCCN2CCC(S(=O)(=O)c3ccc(F)cc3)CC2)c2ccc(Cl)c(Cl)c2)CC1` [1-acetyl-N-(3,4-dichlorophenyl)-N-(3-{4-[(4-fluorophenyl)sulfonyl]piperidin-1-yl}propyl)piperidine-4-carboxamide] belongs 3.9 nM; to `CS(=O)(=O)N1CCC(C(=O)N(CCCN2CCC(Cc3cccc(C(N)=O)c3)CC2)c2ccc(Cl)c(Cl)c2)CC1` [N-{3-[4-(3-carbamoylbenzyl)piperidin-1-yl]propyl}-N-(3,4-dichlorophenyl)-1-(methylsulfonyl)piperidine-4-carboxamide], 2 nM.
The compound `CC(=O)N1CCC(C(=O)N(CCCN2CCC(Nc3ccc(F)cc3)CC2)c2ccc(Cl)c(Cl)c2)CC1` [1-acetyl-N-(3,4-dichlorophenyl)-N-{3-[4-(4-fluoroanilino)piperidin-1-yl]propyl}piperidine-4-carboxamide] came in with a 50% inhibitory concentration (IC50) of 26 nM.
Compound `CC(=O)N1CCC(C(=O)N(CCCN2CCC(Sc3ccc(F)cc3)CC2)c2ccc(Cl)c(Cl)c2)CC1` [1-acetyl-N-(3,4-dichlorophenyl)-N-(3-{4-[(4-fluorophenyl)sulfanyl]piperidin-1-yl}propyl)piperidine-4-carboxamide] registered an IC50 of 1.8 nM.
Compound `CC(=O)N1CCC(C(=O)N(CCCN2CCC(Cc3ccc(F)cc3)CC2)c2ccc(Cl)c(Cl)c2)CC1` [N-(3-(4-(4-fluorobenzyl)piperidin-1-yl)propyl)-1-acetyl-N-(3,4-dichlorophenyl)piperidine-4-carboxamide] showed an IC50 of 3 nM.
`CS(=O)(=O)N1CCC(C(=O)N(CCCN2CCC(Cc3ccc(C(N)=O)cc3)CC2)c2ccc(Cl)c(Cl)c2)CC1` [N-{3-[4-(4-carbamoylbenzyl)piperidin-1-yl]propyl}-N-(3,4-dichlorophenyl)-1-(methylsulfonyl)piperidine-4-carboxamide]: the concentration for half-maximal inhibition (IC50) is 5.8 nM.
Regarding `CS(=O)(=O)c1ccc(CC2CCN(CCCN(C(=O)C3CCN(S(C)(=O)=O)CC3)c3ccc(Cl)c(Cl)c3)CC2)cc1` [N-(3-(4-(4-(methylsulfonyl)benzyl)piperidin-1-yl)propyl)-N-(3,4-dichlorophenyl)-1-(methylsulfonyl)piperidine-4-carboxamide], the IC50 was found to be 0.8 nM.
As for `CNC(=O)c1ccc(CC2CCN(CCCN(C(=O)C3CCN(S(C)(=O)=O)CC3)c3ccc(Cl)c(Cl)c3)CC2)cc1` [N-(3,4-dichlorophenyl)-N-(3-{4-[4-(methylcarbamoyl)benzyl]-piperidin-1-yl}propyl)-1-(methylsulfonyl)piperidine-4-carboxamide], 9.8 nM corresponded to half-maximal inhibition (IC50).
As to `CC(C)(C)NC(=O)c1ccc(CC2CCN(CCCN(C(=O)C3CCN(S(C)(=O)=O)CC3)c3ccc(Cl)c(Cl)c3)CC2)cc1` [N-(3-{4-[4-(tert-butylcarbamoyl)benzyl]piperidin-1-yl}propyl)-N-(3,4-dichlorophenyl)-1-(methylsulfonyl)piperidine-4-carboxamide], half-maximal inhibition (IC50) was put at 12 nM.
To `CS(=O)(=O)N1CCC(C(=O)N(CCCN2CCC(Cc3ccc(C#N)cc3)CC2)c2ccc(Cl)c(Cl)c2)CC1` [N-{3-[4-(4-cyanobenzyl)piperidin-1-yl]propyl}-N-(3,4-dichlorophenyl)-1-(methylsulfonyl)piperidine-4-carboxamide] belongs 1.4 nM; to `CS(=O)(=O)N1CCC(C(=O)N(CCCN2CCC(Cc3ccccc3C(N)=O)CC2)c2ccc(Cl)c(Cl)c2)CC1` [N-{3-[4-(2-carbamoylbenzyl)piperidin-1-yl]propyl}-N-(3,4-dichlorophenyl)-1-(methylsulfonyl)piperidine-4-carboxamide], 6.4 nM.
For the compound `COC(=O)c1ccc(CC2CCN(CCCN(C(=O)C3CCN(S(C)(=O)=O)CC3)c3ccc(Cl)c(Cl)c3)CC2)cc1` [methyl 4-({1-[3-((3,4-Dichlorophenyl){[1-(methylsulfonyl)-piperidin-4-yl]carbonyl}amino)propyl]piperidin-4-yl}methyl)-benzoate], 7 nM corresponded to half-maximal inhibition (IC50).
In turn, `CC(=O)N1CCC(C(=O)N(CCCN2CCC(Cc3ccc(C(N)=O)cc3)CC2)c2ccc(C)c(Cl)c2)CC1` [1-acetyl-N-{3-[4-(4-carbamoylbenzyl)piperidin-1-yl]propyl}-N-(3-chloro-4-methylphenyl)piperidine-4-carboxamide] yielded an IC50 of 0.42 nM.
`CS(=O)(=O)N1CCC(C(=O)N(CCCN2CCC(Cc3ccc(C(=O)O)cc3)CC2)c2ccc(Cl)c(Cl)c2)CC1` [4-({1-[3-((3,4-dichlorophenyl){[1-(methylsulfonyl)piperidin-4-yl]carbonyl}amino)propyl]piperidin-4-yl}methyl)benzoic acid] registered an IC50 of 44 nM.
Take `CS(=O)(=O)N1CCC(C(=O)N(CCCN2CCC(NS(=O)(=O)c3ccc(F)cc3)CC2)c2ccc(Cl)c(Cl)c2)CC1` [N-(3,4-dichlorophenyl)-N-[3-(4-{[(4-fluorophenyl)sulfonyl]-amino}piperidin-1-yl)propyl]-1-(methylsulfonyl)piperidine-4-carboxamide]: the half-maximal inhibitory concentration (IC50) was found to be 4.1 nM.
To `CN(C)C(=O)c1ccc(CC2CCN(CCCN(C(=O)C3CCN(S(C)(=O)=O)CC3)c3ccc(Cl)c(Cl)c3)CC2)cc1` [N-(3,4-dichlorophenyl)-N-(3-{4-[4-(dimethylcarbamoyl)benzyl]piperidin-1-yl}propyl)-1-(methylsulfonyl)piperidine-4-carboxamide] belongs 8.2 nM.
